In assay [1] the test system is CAC. Nature of the assay: CAC cell-cycle progression (S phase, FACS). Type of assay: cell-based, human. To be noted: cultured CAC, still evident after 7 days; FIG. 1A. The method, then:
(§1) Peripheral-blood mononuclear cells (PB-MNC) isolated by Fycoll Histopaque 1077 (Sigma) were resuspended in 20% FBS 199 Medium and plated on fibronectin-coated dishes (Biocoat, Becton Dickinson Labware) as described by Hill et al. (Ref. 19). Human UAG studies were performed on CAC recovered from normal donors and diabetic patients. The purity of sorted cells was assessed by FACS analysis (Ref. 20). For experiments, the isolated CAC were cultured under 5% CO2 at 37° C. for 4 days on 20 μg/ml fibronectin-coated dishes in EGM-2 medium containing 10% FBS, hydrocortisone, human Fibroblast Growth Factor, Vascular Endothelial Growth Factor, Insulin Growth Factor 1, ascorbic acid, human Epidermal Growth Factor, gentamicin and amphotericin-B (Cambrex, Walkersville, Md., USA) alone or in combination with 1 μM UAG and 1.2 mg/ml AGE. In selected experiments, isolated CAC were cultured in EBM-2 medium (Cambrex, Walkersville, Md., USA) supplemented with 10 ng/ml of IL-3. […]
(§2) Flow Cytometry—To analyze CAC cell-cycle progression, cells recovered from diabetic, healthy subjects, NOD/SCID, ob/ob and wt mice, were cultured in EBM-2 supplemented with IL-3 (10 ng/ml), FACS analysis was performed as previously described (Ref. 20). Cell surface molecules were evaluated by flow cytometry as previously described (Ref. 24). Frequency of marker-positive cells is expressed as mean±standard deviation (SD).

In another assay the target is GHSR-1a (Homo sapiens, UniProt Q92847). To be noted: cited from earlier work.
The test system of a further assay is cardiomyocytes. The settings on record: Ref. 8; cited from earlier work.
Assay [2] concerns CAC. Nature of the assay: Senescence of CAC recovered from type 2 diabetic patients treated with UAG. Further details: species or system human. To be noted: 12 hours of treatment in vivo, FIG. 2D. On the procedure: (§3) All the subjects underwent the following testing session: • UAG (3.0 μg/kg/h iv. as infusion for 12 h from 0 to 12 hours); • isotonic saline (infusion from 0 to 12 hours).
(§4) All tests were performed starting at 08.30-09.00 a.m. after overnight fasting, 30 minutes after an indwelling catheter had been placed into a forearm vein by slow infusion of isotonic saline. Blood samples were taken at 0 h, 6 h and 12 h.
CAC Senescence—Senescence was evaluated by acidic β-gal activity on CAC recovered from normal subjects cultured in EGM2 medium for 4 days with UAG or AGE+UAG and saline- or UAG-treated diabetic patients (Ref. 22). Briefly, CAC were washed in phosphate-buffered saline, fixed for 3 min at room temperature in 2% paraformaldehyde, washed, and incubated for24 h at 37° C. with fresh SA-β-gal stain solution: 1 mg/ml 5-bromo-4-chloro-3-indolyl β-D-galactopyranoside (X-gal), 5 mM/liter potassium ferrocyanide, 5 mM/liter ferricyanide, 150 mM/liter NaCl, 2 mM/liter MgCl2, 0.01% sodium deoxycholate, and 0.02% Nonidet P-40. SA-β-gal-positive cells were counted manually by 3 independent investigators.

The subject of the next assay is CAC membranes. Kind of assay: Competition binding with [125I-Tyr4]-UAG on CAC membranes. Set-up: species or system human. The settings on record: 100 nM unlabelled competitor, radioligand 0.25 nM; FIG. 5A. An excerpt:
The specific binding of [^125I-Tyr^4]-UAG (calculated as difference between binding in the absence, control, and in the presence of UAG) represented about 75% of the control value (P<0.001) and was detected either on fresh (0.25 and 0.26 fmol) or frozen-thawed (0.20 and 0.33 fmol) CAC membranes from two different cell preparations.

Assay [3] relates to CAC. Kind of assay: CAC mobilization assay in healthy subjects and diabetic patients. Type of assay: in vivo, human. The settings on record: diabetic patients compared to normal subjects, 6 hours treatment; FIG. 3B. On the procedure:
as §3, §4
Mobilization assay—CAC recovered from healthy subjects and diabetic patients, treated with UAG or saline for 6 h and 12 h, were evaluated. Total number of MNC was counted by 3 independent investigators. The percentage of CAC was calculated by comparing CAC obtained from diabetic patients and healthy donors, treated for 6 h and 12 h with UAG, AG or saline, to CAC recovered at time 0.

In assay [4] the test system is CAC. Nature of the assay: Matrigel-plug assay of de novo vessel formation by CAC from treated diabetic patients. Type of assay: in vivo, SCID mice. The method, then: Matrigel-plug assay—For murine angiogenesis assay, untreated or UAG-treated CAC, obtained from type 2 diabetic patients, were counted and resuspended in DMEM (4×10^6 in 250 μL DMEM). Cells were chilled in ice, labelled with fluorescent dye carboxyfluorescein diacetate succinimidyl ester (CSFE, Molecular Probes), added to 250 μL Matrigel containing of IL-3 (100 ng/ml) at 4° C., and injected sc. in the abdominal paramedian region of 7 week old NOD/SCID mice (5 mice per group). After 15 days, mice were killed and Matrigel plugs were recovered, fixed in 10% buffered formalin and embedded in paraffin for immunohistochemistry.
Immunohistochemistry and immunofluorescence—For immunohistochemistry, sections from paraffin-embedded blocks of Matrigel plugs were collected onto poly-lysine-coated slides. Endogenous peroxidase activity was blocked with 6% H2O2 for 8 minutes at room temperature. To detect cells labelled with fluorescent dye CSFE, anti-Fluorescein/Oregon Green polyclonal Abs (Molecular Probes) were applied to slides overnight at 4° C. […] The percentage of positive cells was counted in 4 non-sequential sections for each experiment at ×40 magnification. […] The number of MHC II or HLA I positive vessels was determined by counting 10 randomly selected fields in three different samples.

Assay [5] concerns CAC. Nature of the assay: Expansion (S phase) of CAC recovered from treated subjects, cultured with IL-3. The format is in vivo, human. To be noted: cells from treated diabetic patients cultured with IL-3; FIG. 3C. The method, then: as §1, §2

Where no end group is shown, it is not given here.

Chain of GHSR-1a (Q92847 whole entry): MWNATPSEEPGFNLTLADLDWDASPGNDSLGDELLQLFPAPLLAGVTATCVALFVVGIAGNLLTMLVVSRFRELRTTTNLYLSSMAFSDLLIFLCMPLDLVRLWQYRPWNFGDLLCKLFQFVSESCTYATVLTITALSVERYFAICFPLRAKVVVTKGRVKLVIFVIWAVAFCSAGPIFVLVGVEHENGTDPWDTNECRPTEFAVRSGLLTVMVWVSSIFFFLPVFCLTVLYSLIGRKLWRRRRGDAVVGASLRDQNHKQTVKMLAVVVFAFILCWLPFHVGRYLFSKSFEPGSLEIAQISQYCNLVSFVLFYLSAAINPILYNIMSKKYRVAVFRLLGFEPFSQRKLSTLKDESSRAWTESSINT

With “1-NH2Gly-Ser-Ser-Phe-Leu-Ser-Pro-Glu-His-Gln-Arg-Val-Gln-Gln-Arg-Lys-Glu-Ser-Lys-Lys-Pro-Pro-Ala-Lys-Leu-Gln-Pro-Arg-28 (GSSFLSPEHQRVQQRKESKKPPAKLQPR; ends and bridges not checked; listed as Homo sapiens) [UAG]”, the “percentage of cells in S phase” value with CAC [1] is recorded as “significant increase in the percentage of cells in S phase”. The “binding to GHSR-1a” value with GHSR-1a is reported as “fails to bind GHSR-1a”. In addition, in the assay on cardiomyocytes, the experimentally-induced cell death result is “inhibit experimentally-induced cell death”. Besides, in the assay with CAC [2], the “number of senescent cells” value is recorded as “reduced the number of senescent cells”. Also, the “inhibition of binding of [125I-Tyr4]-UAG to CAC membranes” value in the assay on CAC membranes was “inhibited”. In addition, the “number of recovered CAC” value in the assay with CAC [3] is recorded as “strong increase in the number of recovered cells”. The “formation of functional vessels by labelled CAC” value in the assay with CAC [4] (CAC from UAG-treated diabetic patients, Matrigel plugs with IL-3, 15 days, FIG. 4E) is on record as “formed functional vessels”. For the same substance, the “origin of neo-vessels (human HLA Class I vs mouse MHC II)” value with CAC [4] (immunofluorescence of Matrigel plugs, FIG. 4F) is “majority of vessels are lined by human HLA Class I positive cells”. Further, the “cell expansion of recovered cells (S phase)” value with CAC [5] is “underwent cell expansion”.
